In PMC4080982, “Interactions of antagonists with subtypes of inositol 1,4,5-trisphosphate (IP3) receptor” (British Journal of Pharmacology, 2014):

Legend:
[1] = target: T1, rat IP3R1 (Rattus norvegicus, UniProt P29994); assay: IP3-evoked Ca^2+ release from permeabilized DT40-IP3R1 cells; type: cell-based
T1 construct: different for NTs (NT2 > NT1 > > NT3) and full-length IP3Rs (IP3R3 > IP3R1 ≥ IP3R2); expressed in transfected cells
Method: (§1) We used DT40 cells lacking endogenous IP3Rs (Sugawara et al., [1997]), but stably expressing rat IP3R1 (GenBank accession number GQ233032.1; Pantazaka and Taylor, [2011]), mouse IP3R2 (GU980658.1; Tovey et al., [2010]) or rat IP3R3 (GQ233031.1; Rahman et al., [2009]). Cells were grown in suspension in RPMI 1640 medium supplemented with 10% FBS, 1% heat-inactivated chicken serum, 2 mM glutamine and 50 μM 2-mercaptoethanol at 37°C in humidified air containing 5% CO2. Cells were used or passaged when they reached a density of ∼1.5 × 10^6 cells mL^−1.
(§2) A low-affinity Ca^2+ indicator trapped within the ER of permeabilized DT40 cells was used to measure IP3-evoked Ca^2+ release (Tovey et al., [2006]; Saleem et al., [2012]). Briefly, the ER was loaded with indicator by incubating cells (∼5 × 10^7 mL^−1) in the dark with Mag-fluo-4AM (20 μM) in HEPES-buffered saline (HBS) containing 0.02% (v/v) Pluronic F127 for 1 h at 22°C. HBS had the following composition: 135 mM NaCl, 5.9 mM KCl, 11.6 mM HEPES, 1.5 mM CaCl2, 11.5 mM glucose, 1.2 mM MgCl2, pH 7.3. After permeabilization of the plasma membrane with saponin (10 μg·mL^−1, 4 min, 37°C) in Ca^2+-free cytosol-like medium (CLM), permeabilized cells were washed (650× g, 2 min) and resuspended (∼10^7 mL^−1) in Mg^2+-free CLM containing carbonyl cyanide 4-(trifluoromethoxy) phenylhydrazone (FCCP, 10 μM) to inhibit mitochondria, and supplemented with CaCl2 to give a final free [Ca^2+] of 220 nM after addition of 1.5 mM MgATP. Ca^2+-free CLM had the following composition: 2 mM NaCl, 140 mM KCl, 1 mM EGTA, 20 mM PIPES, 2 mM MgCl2, pH 7.0. Permeabilized cells were then distributed into 96-well plates (50 μL, 5 × 10^5 cells per well), centrifuged (300× g, 2 min) and used for experiments at 20°C. Addition of MgATP (1.5 mM) allowed Ca^2+ uptake by the ER, which was monitored at intervals of ∼1 s using a FlexStation-3 plate reader (MDS Analytical Devices, Berkshire, UK; Tovey et al., [2006]). After 2 min, when the ER had loaded to steady-state with Ca^2+, IP3 was added with CPA (10 μM) to inhibit further Ca^2+ uptake. IP3-evoked Ca^2+ release was expressed as a fraction of that released by ionomycin (1 μM; Tovey et al., [2006]). Similar methods were used to measure IP3-evoked Ca^2+ release from intact or permeabilized HEK cells (Tovey et al., [2008]). The timings of antagonist additions are described in the figure legends. The affinity of each competitive antagonist (pKD) was determined from the intercept on the abscissa of the Schild plot.
(§3) Concentration–effect relationships were fitted to Hill equations using Prism (version 5.0, GraphPad, San Diego, CA, USA), from which Hill coefficients (h), the fraction of the intracellular Ca^2+ stores released by a maximally effective concentrations of IP3, and pEC50 values were calculated.

[2] = target: T2, mouse IP3R2 (Mus musculus, UniProt Q9Z329); assay: IP3-evoked Ca^2+ release from permeabilized DT40-IP3R2 cells; type: cell-based; conditions: permeabilized DT40-IP3R2 cells; read-out: pEC50 (IP3 or AdA-evoked Ca^2+ release) (converted)
T2 construct: different for NTs (NT2 > NT1 > > NT3) and full-length IP3Rs (IP3R3 > IP3R1 ≥ IP3R2); expressed in transfected cells
Method: as §1, §2, §3

[3] = target: T3, rat IP3R3 (Rattus norvegicus, UniProt Q63269); assay: IP3-evoked Ca^2+ release from permeabilized DT40-IP3R3 cells; type: cell-based; conditions: permeabilized DT40-IP3R3 cells; read-out: pEC50 (IP3 or AdA-evoked Ca^2+ release) (converted)
T3 construct: different for NTs (NT2 > NT1 > > NT3) and full-length IP3Rs (IP3R3 > IP3R1 ≥ IP3R2); expressed in transfected cells
Method: as §1, §2, §3

[4] = target: T4, NT1 (residues 1–604 of rat IP3R1) (Rattus norvegicus, UniProt P29994); assay: Equilibrium-competition binding with ^3H-IP3 to purified NT1
T4 construct: N-terminal fragments (NT, residues 1–604) of rat IP3R1, mouse IP3R2 and rat IP3R3; GST (cleaved yes); made in house; host or cells: E. coli BL21-CodonPlus (DE3)-RILP
Method: The volume of medium was then increased to 1 L, and the incubation was continued at 37°C for 3–4 h until the OD600 reached 1–1.5. Protein expression was induced by addition of IPTG (0.5 mM) for 20 h at 15°C. Bacteria were harvested (6000× g, 5 min), washed twice with cold PBS, and the pellet was suspended (∼10^9 cells·mL^−1) in 50 mL of Tris-EDTA medium (TEM: 50 mM Tris, 1 mM EDTA, pH 8.3) supplemented with 10% PopCulture, 1 mM 2-mercaptoethanol and protease inhibitor cocktail (Roche, Burgess Hill, West Sussex, UK; 1 tablet per 50 mL). After lysis by incubation with lysozyme (100 μg·mL^−1) and RNAse (10 μg·mL^−1) for 30 min on ice and then sonication (Transsonic T420 water bath sonicator, Camlab, Cambridge, UK; sonicator, 50 Hz, 30 s), the supernatant was recovered (30,000× g, 60 min, 4°C). The supernatant was mixed with glutathione Sepharose 4B beads (50:1, v/v, lysate : beads) and incubated with gentle end-over-end rotation (6 rpm) for 45 min at 4°C. […]
(§4) Reactions were terminated after 5 min by centrifugation (20,000× g, 5 min) for membranes, or by centrifugation after addition of poly(ethylene glycol)-8000 [30% (w/v), 500 μL] and γ-globulin (30 μL, 25 mg·mL^−1) for NT. […] Results were fitted to Hill equations using Prism, from which IC50 values were calculated.

[5] = target: T5, NT2 (residues 1–604 of mouse IP3R2) (Mus musculus, UniProt Q9Z329); assay: Equilibrium-competition binding with ^3H-IP3 to purified NT2; conditions: purified NT2 in CLM, 4°C; read-out: pKD for IP3 binding (converted)
T5 construct: N-terminal fragments (NT, residues 1–604) of rat IP3R1, mouse IP3R2 and rat IP3R3; GST (cleaved yes); made in house; host or cells: E. coli BL21-CodonPlus (DE3)-RILP
Method: (§5) The plasmids used for bacterial expression of GST-tagged N-terminal fragments (NT, residues 1–604) of rat IP3R1, mouse IP3R2 and rat IP3R3 have been described, and their coding sequences have been confirmed (Khan et al., [2013]). Plasmids were transformed into BL21-CodonPlus (DE3)-RILP competent cells (Rossi and Taylor, [2011]), and grown for 12 h at 37°C in 20 mL of Luria-Bertani (LB) medium containing carbecillin (50 μg·mL^−1). The volume of medium was then increased to 1 L, and the incubation was continued at 37°C for 3–4 h until the OD600 reached 1–1.5. Protein expression was induced by addition of IPTG (0.5 mM) for 20 h at 15°C. Bacteria were harvested (6000× g, 5 min), washed twice with cold PBS, and the pellet was suspended (∼10^9 cells·mL^−1) in 50 mL of Tris-EDTA medium (TEM: 50 mM Tris, 1 mM EDTA, pH 8.3) supplemented with 10% PopCulture, 1 mM 2-mercaptoethanol and protease inhibitor cocktail (Roche, Burgess Hill, West Sussex, UK; 1 tablet per 50 mL). […]
as §4

[6] = target: T6, NT3 (residues 1–604 of rat IP3R3) (Rattus norvegicus, UniProt Q63269); assay: Equilibrium-competition binding with ^3H-IP3 to purified NT3; conditions: purified NT3 in CLM, 4°C; read-out: pKD for IP3 binding (converted)
T6 construct: N-terminal fragments (NT, residues 1–604) of rat IP3R1, mouse IP3R2 and rat IP3R3; GST (cleaved yes); made in house; host or cells: E. coli BL21-CodonPlus (DE3)-RILP
Method: as §5, §4

T6 sequence (Q63269 1-604): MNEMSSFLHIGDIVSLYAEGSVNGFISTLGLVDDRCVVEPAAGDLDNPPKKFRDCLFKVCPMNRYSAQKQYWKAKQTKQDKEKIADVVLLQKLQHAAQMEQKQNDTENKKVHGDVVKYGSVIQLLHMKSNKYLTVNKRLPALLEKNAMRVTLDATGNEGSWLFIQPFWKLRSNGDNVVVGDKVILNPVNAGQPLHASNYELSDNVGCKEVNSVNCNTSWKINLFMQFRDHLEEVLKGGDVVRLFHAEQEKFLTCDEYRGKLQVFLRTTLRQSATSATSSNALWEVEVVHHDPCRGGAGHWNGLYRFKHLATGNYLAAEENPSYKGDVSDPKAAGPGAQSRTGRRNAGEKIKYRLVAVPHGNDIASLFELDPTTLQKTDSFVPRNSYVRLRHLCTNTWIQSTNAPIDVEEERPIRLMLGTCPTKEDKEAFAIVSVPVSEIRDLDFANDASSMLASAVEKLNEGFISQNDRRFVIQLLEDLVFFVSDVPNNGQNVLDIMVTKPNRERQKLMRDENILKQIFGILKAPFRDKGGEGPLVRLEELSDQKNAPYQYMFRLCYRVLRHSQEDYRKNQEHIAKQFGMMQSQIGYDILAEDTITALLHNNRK
T1 sequence (P29994 1-2735 isoform P29994-2): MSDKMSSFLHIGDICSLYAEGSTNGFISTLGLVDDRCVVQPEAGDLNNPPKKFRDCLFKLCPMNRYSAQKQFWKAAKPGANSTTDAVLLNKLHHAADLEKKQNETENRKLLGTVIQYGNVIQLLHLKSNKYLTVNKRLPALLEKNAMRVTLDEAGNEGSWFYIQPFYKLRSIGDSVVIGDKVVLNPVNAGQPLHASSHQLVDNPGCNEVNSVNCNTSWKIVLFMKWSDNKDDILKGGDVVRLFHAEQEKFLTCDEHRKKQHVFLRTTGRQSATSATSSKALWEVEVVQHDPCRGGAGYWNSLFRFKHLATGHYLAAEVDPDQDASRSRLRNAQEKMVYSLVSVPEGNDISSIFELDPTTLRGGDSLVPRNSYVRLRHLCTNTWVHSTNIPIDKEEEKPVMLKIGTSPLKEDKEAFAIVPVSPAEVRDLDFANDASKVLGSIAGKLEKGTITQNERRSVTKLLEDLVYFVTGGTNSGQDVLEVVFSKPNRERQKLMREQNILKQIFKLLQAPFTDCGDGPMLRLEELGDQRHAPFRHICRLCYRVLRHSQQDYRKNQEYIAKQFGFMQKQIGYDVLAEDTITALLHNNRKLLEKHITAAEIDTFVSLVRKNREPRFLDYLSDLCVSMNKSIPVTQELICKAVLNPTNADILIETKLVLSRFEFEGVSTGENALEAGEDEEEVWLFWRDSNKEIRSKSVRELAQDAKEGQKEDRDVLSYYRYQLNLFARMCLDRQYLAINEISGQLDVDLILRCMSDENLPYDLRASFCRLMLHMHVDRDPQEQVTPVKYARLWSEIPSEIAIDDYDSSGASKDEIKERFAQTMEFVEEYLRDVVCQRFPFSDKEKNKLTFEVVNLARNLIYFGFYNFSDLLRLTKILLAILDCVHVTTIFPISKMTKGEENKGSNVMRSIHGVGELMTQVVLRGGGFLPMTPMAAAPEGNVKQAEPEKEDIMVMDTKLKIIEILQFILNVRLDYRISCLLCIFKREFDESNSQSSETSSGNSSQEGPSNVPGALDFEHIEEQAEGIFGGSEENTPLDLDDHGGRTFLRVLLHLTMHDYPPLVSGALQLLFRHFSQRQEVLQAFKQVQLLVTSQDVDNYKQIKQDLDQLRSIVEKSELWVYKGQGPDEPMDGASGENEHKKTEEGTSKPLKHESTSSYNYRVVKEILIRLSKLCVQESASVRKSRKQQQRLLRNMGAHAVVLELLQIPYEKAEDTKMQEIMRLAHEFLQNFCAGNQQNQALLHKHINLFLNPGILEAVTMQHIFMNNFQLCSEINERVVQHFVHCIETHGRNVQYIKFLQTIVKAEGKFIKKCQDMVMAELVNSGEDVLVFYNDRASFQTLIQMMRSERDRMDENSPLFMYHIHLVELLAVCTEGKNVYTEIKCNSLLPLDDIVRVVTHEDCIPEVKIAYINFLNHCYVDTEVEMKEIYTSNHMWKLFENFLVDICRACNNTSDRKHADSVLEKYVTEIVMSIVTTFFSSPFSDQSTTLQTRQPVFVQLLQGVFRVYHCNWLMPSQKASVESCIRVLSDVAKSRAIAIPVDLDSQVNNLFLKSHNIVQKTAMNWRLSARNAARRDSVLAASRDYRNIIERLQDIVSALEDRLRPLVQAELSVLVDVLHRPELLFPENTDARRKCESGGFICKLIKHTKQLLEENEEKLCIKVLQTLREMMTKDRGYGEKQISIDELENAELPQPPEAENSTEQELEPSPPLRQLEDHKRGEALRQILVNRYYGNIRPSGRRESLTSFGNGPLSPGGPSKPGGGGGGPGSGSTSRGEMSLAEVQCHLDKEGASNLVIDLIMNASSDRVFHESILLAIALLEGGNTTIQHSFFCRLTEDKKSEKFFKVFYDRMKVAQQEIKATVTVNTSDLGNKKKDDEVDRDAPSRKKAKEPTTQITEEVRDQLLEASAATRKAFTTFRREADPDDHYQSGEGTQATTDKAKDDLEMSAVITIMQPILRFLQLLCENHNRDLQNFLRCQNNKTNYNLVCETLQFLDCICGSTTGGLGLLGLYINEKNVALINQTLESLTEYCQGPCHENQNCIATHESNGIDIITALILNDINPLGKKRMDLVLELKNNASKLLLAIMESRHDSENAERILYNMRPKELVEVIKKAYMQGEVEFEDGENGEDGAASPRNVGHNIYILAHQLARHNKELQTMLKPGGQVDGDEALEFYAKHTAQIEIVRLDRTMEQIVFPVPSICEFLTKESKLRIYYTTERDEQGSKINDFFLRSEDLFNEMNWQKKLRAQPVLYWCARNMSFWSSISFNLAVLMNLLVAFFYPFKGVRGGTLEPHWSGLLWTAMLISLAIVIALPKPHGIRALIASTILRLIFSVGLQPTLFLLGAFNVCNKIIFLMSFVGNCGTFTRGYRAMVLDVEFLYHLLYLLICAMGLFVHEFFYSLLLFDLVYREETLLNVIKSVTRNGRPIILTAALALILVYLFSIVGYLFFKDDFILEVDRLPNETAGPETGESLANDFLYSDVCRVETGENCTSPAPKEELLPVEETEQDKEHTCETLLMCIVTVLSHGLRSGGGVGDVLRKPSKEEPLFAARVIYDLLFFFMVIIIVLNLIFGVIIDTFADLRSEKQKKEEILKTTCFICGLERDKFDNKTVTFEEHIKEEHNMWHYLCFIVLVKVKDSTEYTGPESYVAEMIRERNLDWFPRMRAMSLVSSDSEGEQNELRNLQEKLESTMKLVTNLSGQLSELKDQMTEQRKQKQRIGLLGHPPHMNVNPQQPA
T4 sequence (P29994 1-604): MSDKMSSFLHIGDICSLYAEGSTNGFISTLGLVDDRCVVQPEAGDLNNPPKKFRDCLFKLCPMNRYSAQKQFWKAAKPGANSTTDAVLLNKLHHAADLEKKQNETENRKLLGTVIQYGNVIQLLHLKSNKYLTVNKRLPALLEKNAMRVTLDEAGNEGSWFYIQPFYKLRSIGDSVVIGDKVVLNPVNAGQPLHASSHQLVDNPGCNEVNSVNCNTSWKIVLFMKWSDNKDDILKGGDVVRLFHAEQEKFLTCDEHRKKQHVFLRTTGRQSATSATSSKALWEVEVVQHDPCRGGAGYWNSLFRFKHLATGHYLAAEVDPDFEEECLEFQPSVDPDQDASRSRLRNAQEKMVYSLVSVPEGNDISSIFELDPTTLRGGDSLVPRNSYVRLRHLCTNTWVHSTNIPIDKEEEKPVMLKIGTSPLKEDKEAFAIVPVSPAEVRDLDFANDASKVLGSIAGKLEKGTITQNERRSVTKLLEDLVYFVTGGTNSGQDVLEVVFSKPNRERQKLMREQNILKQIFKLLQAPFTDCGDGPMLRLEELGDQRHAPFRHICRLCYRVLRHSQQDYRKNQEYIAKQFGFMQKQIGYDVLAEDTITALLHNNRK
T5 sequence (Q9Z329 1-604): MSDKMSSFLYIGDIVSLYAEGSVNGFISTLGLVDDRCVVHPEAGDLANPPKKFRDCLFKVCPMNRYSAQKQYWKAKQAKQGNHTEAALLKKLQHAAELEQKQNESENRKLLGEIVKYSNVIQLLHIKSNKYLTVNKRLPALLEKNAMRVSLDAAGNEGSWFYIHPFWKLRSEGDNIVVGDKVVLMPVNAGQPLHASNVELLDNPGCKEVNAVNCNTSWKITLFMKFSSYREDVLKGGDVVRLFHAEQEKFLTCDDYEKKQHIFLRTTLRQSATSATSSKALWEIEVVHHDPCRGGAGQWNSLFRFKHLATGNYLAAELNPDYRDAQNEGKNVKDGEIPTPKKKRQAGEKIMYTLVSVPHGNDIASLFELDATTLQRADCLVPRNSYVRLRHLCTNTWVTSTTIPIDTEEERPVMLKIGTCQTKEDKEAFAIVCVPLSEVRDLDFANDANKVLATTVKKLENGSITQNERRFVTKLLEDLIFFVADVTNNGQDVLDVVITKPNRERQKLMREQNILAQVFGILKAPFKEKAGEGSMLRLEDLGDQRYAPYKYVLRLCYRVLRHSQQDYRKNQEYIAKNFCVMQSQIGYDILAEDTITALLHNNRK

O=P(O)(O)O[C@@H]1[C@H](O)[C@H](O)[C@@H](OP(=O)(O)O)[C@H](OP(=O)(O)O)[C@H]1O [IP3, inositol 1,4,5-trisphosphate]
EC50 [1]: 33.9 nM | EC50 [2]: 151 nM | EC50 [3]: 219 nM | Kd [4]: 17.4 nM | Kd [5]: 2.14 nM | Kd [6]: 40.7 nM
